The numbers were not newly measured in patent US20070207452A1, “Method of detecting micronucleus in cell” (Olympus Corporation, priority 2004, published 2007), which cites them from elsewhere.

The series has as its system bacteria. The note with it: background statement; carcinogenic substances detected by the chromosomal aberration test.

On to `c1ccccc1` [benzene], for which the “result in the reverse mutation test” value is given as “negative”.

`CC/C(=C(/CC)c1ccc(O)cc1)c1ccc(O)cc1` [diethylstilbestrol]: the “result in the reverse mutation test” value was “negative”.
